Some results are limits rather than exact numbers.

Chain of AChE (P22303 32-614): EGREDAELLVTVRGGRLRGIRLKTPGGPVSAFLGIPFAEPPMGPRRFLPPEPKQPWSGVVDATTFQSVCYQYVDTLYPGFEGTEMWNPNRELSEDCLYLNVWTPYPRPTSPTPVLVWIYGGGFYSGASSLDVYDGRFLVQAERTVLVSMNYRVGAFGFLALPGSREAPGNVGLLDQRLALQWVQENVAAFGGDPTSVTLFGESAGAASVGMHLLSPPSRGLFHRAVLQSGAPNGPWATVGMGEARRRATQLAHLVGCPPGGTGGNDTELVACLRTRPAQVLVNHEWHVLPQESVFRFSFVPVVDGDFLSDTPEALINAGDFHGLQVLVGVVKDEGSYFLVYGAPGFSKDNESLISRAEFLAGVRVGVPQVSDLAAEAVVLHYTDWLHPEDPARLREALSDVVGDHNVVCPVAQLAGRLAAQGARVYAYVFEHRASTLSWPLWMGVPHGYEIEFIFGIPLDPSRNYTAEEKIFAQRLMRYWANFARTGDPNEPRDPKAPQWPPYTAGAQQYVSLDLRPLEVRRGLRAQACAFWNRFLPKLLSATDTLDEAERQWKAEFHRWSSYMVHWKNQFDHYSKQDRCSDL

For this assay, the target named is AChE (Homo sapiens, UniProt P22303). Put plainly: biochemical. The following applies: mean ± SD of three parallel measurements; phosphate buffer pH 7.7, 25 °C; read-out: IC50 (µM), acetylcholinesterase inhibitory activity. The protocol:
The assay was carried out in a 96-well microtiter plate reader. […] The mixture was incubated for 5 min at 25 °C. […] Percent inhibition was calculated through the following formula: (control absorbance–sample absorbance)/control absorbance × 100. The IC50 values were the means ± SD of three determinations.
On to `CC1C=C(CO)C(=O)O1` (centres unmarked) [Compound 1, 3-(hydroxymethyl)-5-methylfuran-2(5H)-one], for which the IC50 is over 100 µM.

`CC1C=C(CC(=O)O)C(=O)O1` (centres unmarked) [Compound 2, 2-(5-methyl-2-oxo-2,5-dihydrofuran-3-yl)-acetic acid]: the IC50 is over 100 µM. In the case of `COC(=O)CC1=CC(C)OC1=O` (centres unmarked) [Compound 3, methyl-2-(5-methyl-2-oxo-2,5-dihydrofuran-3-yl)-acetate], the IC50 is over 100 µM.

For the compound `C[C@@H]1C=C(C[C@@H](O)[C@H](C)O)C(=O)O1` [Compound 4], the concentration for half-maximal inhibition (IC50) is 6.26 ± 0.15 µM. For `C/C(=C\C(=O)O)CCO` [Compound 5, E-Δ^2-anhydromevalonic acid], the concentration for half-maximal inhibition (IC50) is over 100 µM.

On to `CC1=CC(=O)OCC1` [Compound 6, 4-methyl-5,6-dihydropyren-2-one], for which the IC50 was over 100 µM. The result for `Cc1cc(C(=O)O)cc(C(C)O)n1` (centres unmarked) [Compound 7, 2-(1-hydroxyethyl)-6-methylisonicotinic acid] reads over 100 µM. The same measure for `C[C@@H]1Cc2cc(O)cc(O)c2C(=O)O1` [Compound 8, (R)-6-hydroxymellein]: over 100 µM; for `CC(O)C(O)c1cc2cc(O)cc(O)c2c(=O)o1` (stereo not drawn) [Compound 9, 6,8-dihydroxy-3-(1′R, 2′R-dihydroxypropyl)-isocoumarin]: over 100 µM. The result for `COc1cc(O)cc2cc(C)oc(=O)c12` [Compound 10, 6-hydroxy-8-methoxy-3-methylisocoumarin] reads over 100 µM; that for `C[C@@H](O)Cc1cc2cc(O)cc(O)c2c(=O)o1` [Compound 11, de-O-methyldiaporthin], 21.2 ± 1.53 µM.

(Values after paper PMC8955197, “Polyketide Derivatives from the Endophytic Fungus Phaeosphaeria sp. LF5 Isolated from Huperzia serrata and Their Acetylcholinesterase Inhibitory Activities” (Journal of Fungi, 2022).)
